According to US20110105389A1 (priority 2009, published 2011):

What was measured:
[1] = target: T1, human ghrelin receptor (GRLN, growth hormone secretagogue receptor, hGHS-R1a) (Homo sapiens, UniProt Q92847); experiment: Competitive radioligand binding assay (ghrelin receptor), Method B1; settings: Ghrelin receptor binding activity, Method B1
T1 construct: purchased PerkinElmer BioSignal #RBHGHSM, lot#1887; host or cells: HEK-293 cells, stably transfected (membranes)
Procedure, shortened: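 Filtration competition format: bound radioactivity counted after GF/C harvesting and cold 50 mM Tris-HCl washes. Incubation lasted 30 min at room temperature in Hepes pH 7.4 buffer with Ca2+, Mg2+, EDTA and 0.4% BSA (DMSO ≤0.1% final); values from variable-slope non-linear regression.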

[2] = target: T2, GHS-R1a receptor (HEK293 cells expressing GHS-R1a receptor) (Homo sapiens, UniProt Q92847); experiment: Fluorescence functional assay (ghrelin receptor), Method B2, agonist and antagonist mode; assay type: cell-based; settings: functional activity as an antagonist at the ghrelin receptor, Methods B2 and B3
T2 construct: host or cells: HEK293
Procedure: • 1. ImageTrak Epi-Fluorescence system (Perkin-Elmer) • 2. MultiDrop TiterTek • 3. CO2 incubators: 5% CO2, humidified, 37° C.
• 1. Hanks' BSS without phenol red (Life Technologies) • 2. Hepes buffer • 3. Probenecid (Sigma) • 4. […] Falcon cell culture 96-well black/clear bottom plates • 6. 0.05% trypsin-EDTA • 7. Cells: HEK293 cells expressing GHS-R1a receptor (Perkin-Elmer BioSignal) were grown in DMEM (Dulbecco's Modified Eagles Medium) with 10% FBS, 1% sodium pyruvate, 1% NEAA and 400 μg/mL geneticin • 8. […] [D-Lys^3]-GHRP-6 (reference antagonist, Phoenix #031-22) • 10. Assay buffer: HBSS-20 mM Hepes containing 2.5 mM probenecid and 0.1% BSA (bovine serum albumin); pH 7.4
Stock solutions of compounds (10 mM in 100% DMSO) were provided frozen on dry ice and stored at −80° C. prior to use. […] Assay plates were then prepared by appropriate dilution in assay buffer.
Typical Final Test Concentrations (N=10) for Test Compounds (agonist):
Typical Final Test Concentrations (N=10) for Test Compounds (antagonist):
Cells were maintained in culture as indicated above. The cells were harvested at a confluency of 70-90% the day before the experiment. Growth medium was removed and the cells rinsed briefly with PBS without Ca^+2 and Mg^+2. 0.05% Trypsin was added and the plates incubated at 37° C. for 5 min to detach the cells. DMEM medium supplemented with 10% FBS was added to inactivate the trypsin and determine the cell concentration. The inoculum was adjusted to a final concentration of 200 cells/μL and dispensed at 200 μL per well into a 96-well block plate. The plates were, incubated at 37° C. overnight.
The plates were removed from the incubator and the media removed by inversion of the plates. Calcium-3 dye, 50 μL, was loaded and then incubated for 1 h at 37° C. The plate was again inverted and then 25 μL of assay buffer added. The plates were then transferred to the ImageTrak system for analysis. For agonist testing, after reading for ten (10) sec, 25 μL of 2× test compound or control was injected into the assay plate. Fluorescence was monitored for an additional 50 sec. A reading was taken every two (2) seconds for a total of 30 readings per assay point.
For antagonist testing, after reading for ten (10) sec, 12.5 μL of 3× test compound or control was injected into the assay plate and allowed to react for three (3) min.
Concentration response curves were analyzed using GraphPad Prism (GraphPad Software, San Diego, Calif.) by non-linear regression analysis (sigmoidal dose-response). EC50 values are calculated using GraphPad.
Emax values were calculated using the following formula: […]
Concentration response curves were analyzed using GraphPad Prism (GraphPad Software, San Diego, Calif.) by non-linear regression analysis (sigmoidal dose-response). IC50 values are calculated using GraphPad.
Imax values were calculated using the following formula: […]

[3] = target: T3, ghrelin receptor (HEK-GHSR1 stable cells) (Homo sapiens, UniProt Q92847); experiment: Ghrelin receptor inverse agonist assay (HTRF IP-one), Method B4; assay type: cell-based; settings: inverse agonist at the ghrelin receptor, Method B4
T3 construct: expressed in transfected cells
From the text: B4. Ghrelin Receptor Inverse Agonist Assay […]
In addition, the following method can be utilized to assay for inverse agonist activity. (Thomsen, W.; et al. Curr. Opin. Biotechnol. 2005, 16, 655-665; Tozawa-Takahashi F; et al., 11th SBS Annual Conference. September 2005, Geneva; Trinquet, E.; Fink, M.; Bazin, H.; et al. Anal. Biochem. 2006, 358, 126-135; Bergsdorf, C.; Kropp-Goerkis, C.; Kaehler, I.; Ketscher, L.; Boerner, U.; Parczyk, K.; Bader, B. Assay Drug Dev. Technol. 2008, 6, 39-53.)
• 1. Remove culture medium from the plate by inversion. • 2. Add 70 μl of compound/well. • 3. Incubate 30 min at 37° C. • 4. Stop the reaction by adding 15 μl of lysis buffer/well. • 5. Add 15 μl of d2/well. • 6. Add 15 μl of Anti-IP1 cryptate/well. • 7. Incubate 1 h at room temp on an orbital shaker at 100 RPM. • 8. Read the fluorescence in a plate reader (Tecan GeniosPro or similar)
The above sequence was performed using the HTRF IP-one kit (CisBio cat#62P1APEC). For the simultaneous assay of multiple test compounds, 96-well plates can be utilized in this assay (white plate with flat-bottom well, Falcon #353296). These were seeded overnight with 100 000 of HEK-GHSR1 stable cells/well. • Wells A1 and A2 of each plate are used as negative control (wells without d2). Compounds are typically tested in replicate at the following concentrations:
Compounds are stored at 10 mM in 100% DMSO.
1st dilution 1/10 in 100% DMSO (1 mM final concentration).
2nd dilution 1/10 in H2O (0.1 mM final concentration).
Other dilutions are performed in a 96-well plate in stimulation buffer.
The results for representative compounds of the invention are provided in the Examples.

[4] = Metabolic stability in human liver microsomes, Method B8; assay type: in vitro ADME; settings: human liver microsomes 0.8 mg/mL, 5 μM compound, 37° C.
From the text: B8. Metabolic Stability in Human Liver Microsomes
The liver is the primary site for phase I (oxidation) and phase II (glucuronidation) enzymatic activity responsible for xenobiotic metabolism. Human liver microsomes are used as in vitro screen of metabolic activity for candidate drugs. Similar studies can be run with microsomes from other species, such as those used for in vivo studies, to determine any significant species differences in the stability profile. The aim of this study was to measure the broad-spectrum metabolic stability of representative compounds of the invention. The key aspects of the experimental design are summarized below: • Human liver microsomes (mixed pool of 15 male and female donors) were purchased from In Vitro Technologies (Baltimore, Md.). • Microsomes characterized for phase I (Cyp2A6, 2D6, 2E1, 1A2, 2C19, 3A4, 4A) and phase II (glucuronidation) enzymatic activity. • Assays are performed using a final concentration of 0.8 mg/mL of microsomes in 100 mM potassium phosphate buffer (1.5 mM NADPH, 8 mM MgCl2, pH 7.4, 37° C.). • Compounds are tested in duplicate samples at a single concentration of 5 μM (0.05% DMSO). • Test articles are incubated with the microsomes at 37° C.

[5] = Pharmacokinetic analysis (intravenous and oral), Method B9; assay type: in vivo; settings: Table 10b; for Cl / t1/2: 2 mg/mL intravenous typically employed
From the text: B9. Pharmacokinetic Analysis
The pharmacokinetic (PK) behavior of compounds of the invention and their pharmaceutical compositions can be ascertained by methods well known to those skilled in the art and can be used to investigate the pharmacokinetic parameters (elimination half-life, total plasma clearance, etc.) for intravenous, subcutaneous and oral administration of these substances. (Wilkinson, G. R. “Pharmacokinetics: The Dynamics of Drug Absorption, Distribution, and Elimination” in Goodman & Gilman's The Pharmacological Basis of Therapeutics, Tenth Edition, Hardman, J. G.; Limbird, L. E., Eds., McGraw Hill, Columbus, Ohio, 2001, Chapter 1.) See also U.S. Pat. Nos. 7,476,653; 7,491,695; Intl. Pat. Appl. WO 2008/033328 and U.S. Patent Appl. Publ. 2008/0194672. As an example, compound 1505 has the PK profile below.
The determination of PK parameters for additional representative compounds of the invention is presented in the Examples.
A detailed analysis of the pharmacokinetic profile of representative compounds of the invention was conducted using the procedures outlined in Method B9.
A dose level of 2 mg/mL for intravenous administration and 8 mg/mL for oral administration were typically employed.

T2 sequence (Q92847 whole entry): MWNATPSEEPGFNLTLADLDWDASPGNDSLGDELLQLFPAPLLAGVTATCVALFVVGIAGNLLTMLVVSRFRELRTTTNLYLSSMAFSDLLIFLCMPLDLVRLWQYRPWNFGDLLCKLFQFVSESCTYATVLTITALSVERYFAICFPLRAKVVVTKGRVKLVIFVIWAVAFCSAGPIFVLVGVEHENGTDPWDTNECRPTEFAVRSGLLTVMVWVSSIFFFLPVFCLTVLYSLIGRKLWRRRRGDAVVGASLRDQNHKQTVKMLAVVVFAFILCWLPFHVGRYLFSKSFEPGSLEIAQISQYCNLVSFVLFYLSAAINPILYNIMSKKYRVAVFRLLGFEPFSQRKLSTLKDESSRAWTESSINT
T1 sequence (Q92847 whole entry): as above
T3 sequence (Q92847 whole entry): as above

| Compound | IC50 [1] | Antagonist Activity [2] | IC50 [3] | HLM, metabolic stability in human liver microsomes [4] | Cl [5] | t1/2 [5] | % F ([5]; 2 mg/mL intravenous and 8 mg/mL oral typically employed) |
| --- | --- | --- | --- | --- | --- | --- | --- |
| CC(C)[C@@H]1NCCOc2ccccc2CC[C@@H](C)NC(=O)[C@@H](Cc2cccc(C(F)(F)F)c2)NC(=O)[C@H](C(C)O)N(C)C1=O (stereo partly drawn) [Compound 1412] |  |  |  | 35.4 μL/min/mg protein |  |  |  |
| CC1CCc2ccccc2OCCNC(C(C)C)C(=O)N(C)C(C(C)O)C(=O)NC(Cc2c[nH]c3ccc(F)cc23)C(=O)N1 (stereo not drawn) [Compound 1801] | 0.001 to 0.01 µM | B (B = 1-10 nM) | 0.01 to 0.05 µM |  |  |  |  |
| CC(C)[C@@H]1NCCOc2ccc(F)cc2CCCNC(=O)[C@@H](Cc2ccccc2)NC(=O)[C@H](C(C)O)N(C)C1=O (stereo partly drawn) [Compound 1377] |  |  |  | 65.5 μL/min/mg protein |  |  |  |
| CC[C@@H]1CCc2ccc(F)cc2OCCN[C@@H](C2(C)CC2)C(=O)N(C)[C@@H](C(C)O)C(=O)N[C@H](Cc2cccc(F)c2)C(=O)N1 (stereo partly drawn) [Compound 1747] | 0.01 to 0.1 µM | B (B = 1-10 nM) | 0.05 to 0.1 µM |  |  |  |  |
| CCC(C)C1NCCOc2cccc(F)c2C=CCNC(=O)C(Cc2ccc(Cl)cc2)NC(=O)C(C(C)O)N(C)C1=O (stereo not drawn) [Compound 1799] | 0.001 to 0.01 µM | C (C = 10-100 nM) | 0.05 to 0.1 µM |  |  |  |  |
| Cc1ccc2[nH]cc(CC3NC(=O)C(C(C)O)N(C)C(=O)C(C(C)C)NCCOc4ccccc4CCC(C)NC3=O)c2c1 (stereo not drawn) [Compound 1802] | 0.001 to 0.01 µM |  | 0.01 to 0.05 µM |  |  |  |  |
| CC[C@@H]1CCc2ccc(F)cc2OCCN[C@@H](C(C)C)C(=O)N(C)[C@@H](C(C)O)C(=O)N[C@H](Cc2ccc(Cl)cc2)C(=O)N1 (stereo partly drawn) [Compound 1753] | 0.01 to 0.1 µM | B (B = 1-10 nM) | 0.05 to 0.1 µM |  |  |  |  |
| CCC(C)C1NCCOc2cccc3c2CC(CC3)CNC(=O)C(Cc2ccccc2)NC(=O)C(C(C)O)N(C)C1=O (stereo not drawn) [Compound 1798] | 0.001 to 0.01 µM |  | 0.1 to 0.5 µM |  |  |  |  |
| CCC1CCc2ccc(F)cc2OC(C)CNC(C2(C)CC2)C(=O)N(C)C(C(C)O)C(=O)NC(Cc2ccccc2)C(=O)N1 (stereo not drawn) [Compound 1705] | 0.01 to 0.1 µM | C (C = 10-100 nM) | 0.1 to 0.5 µM |  | 6 ± 2 mL/min/kg | 2.77 ± 0.033 h | 50 ± 14% |
| CCC(C)C1NCCOc2ccccc2C=CCNC(=O)C(Cc2ccccc2OC)NC(=O)C(C(C)O)N(C)C1=O (stereo not drawn) [Compound 1795] | 0.001 to 0.01 µM |  | 0.1 to 0.5 µM |  |  |  |  |
| CC(O)[C@H]1C(=O)N[C@H](Cc2ccc(Cl)cc2)C(=O)NC/C=C/c2ccccc2OCCN[C@@H](C(C)(C)C)C(=O)N1C (stereo partly drawn) [Compound 1768] | 0.01 to 0.1 µM |  | 0.01 to 0.05 µM |  |  |  |  |
| CC1CCc2ccccc2OCCNC(C(C)(C)C)C(=O)N(C)C(C(C)O)C(=O)NC(Cc2cccc(F)c2)C(=O)N1 (stereo not drawn) [Compound 1796] | 0.001 to 0.01 µM |  | 0.01 to 0.05 µM |  |  |  |  |

Other lines, results leading:

| IC50 [1] | Antagonist Activity [2] | IC50 [3] | HLM, metabolic stability in human liver microsomes [4] | Cl [5] | t1/2 [5] | % F ([5]; 2 mg/mL intravenous and 8 mg/mL oral typically employed) | Compound |
| --- | --- | --- | --- | --- | --- | --- | --- |
| 0.01 to 0.1 µM | C (C = 10-100 nM) | 0.05 to 0.1 µM |  |  |  |  | CCC1CCc2ccc(F)cc2OCCNC(C(C)C)C(=O)N(C)C(C(C)O)C(=O)NC(Cc2cn(S(=O)(=O)c3ccc(C)cc3)c3ccccc23)C(=O)N1 (stereo not drawn) [Compound 1812] |
| 0.01 to 0.1 µM | C (C = 10-100 nM) | 0.1 to 0.5 µM |  |  |  |  | CCC1CCc2ccc(Cl)cc2OCCNC(C(C)C)C(=O)N(C)C(C(C)O)C(=O)NC(Cc2c[nH]c3ccccc23)C(=O)N1 (stereo not drawn) [Compound 1806] |
| 0.01 to 0.1 µM | C (C = 10-100 nM) | 0.1 to 0.5 µM |  |  |  |  | CCC1CCc2ccc(F)cc2OCCNC(C(C)C)C(=O)N(C)C(C(C)O)C(=O)NC(C(C)c2ccccc2)C(=O)N1 (stereo not drawn) [Compound 1805] |
| 0.001 to 0.01 µM | B (B = 1-10 nM) | 0.01 to 0.05 µM |  | 10 ± 1 mL/min/kg | 1.72 ± 0.217 h |  | CCC1CCc2ccc(F)cc2OCCNC(C(C)C)C(=O)N(C)C(C(C)O)C(=O)NC(Cc2c[nH]c3ccc(F)cc23)C(=O)N1 (stereo not drawn) [Compound 1803] |
| 0.1 to 0.5 µM |  | 0.1 to 0.5 µM |  |  |  |  | CCC1CCc2ccc(Cl)cc2OCCNC(C(C)C)C(=O)N(C)C(C(C)O)C(=O)NC(Cc2ccccc2)C(=O)N1 (stereo not drawn) [Compound 1813] |
| 0.001 to 0.01 µM | B (B = 1-10 nM) | 0.01 to 0.05 µM |  |  |  |  | CCC1CCc2ccccc2OCCNC(C(C)C)C(=O)N(C)C(C(C)O)C(=O)NC(Cc2c[nH]c3ccc(F)cc23)C(=O)N1 (stereo not drawn) [Compound 1808] |
| 0.01 to 0.1 µM |  | 0.1 to 0.5 µM |  |  |  |  | CC(C)C1NCCOc2cccc(F)c2C=CCNC(=O)C(C(C)c2ccccc2)NC(=O)C(C(C)O)N(C)C1=O (stereo not drawn) [Compound 1811] |
